One assay relates to Musca domestica. The experiment in a line: Housefly contact test, mortality after 48 hours. In kind it is in vivo, Housefly Musca domestica. The settings on record: μg of the test compound per 25 female flies. As to the method:
(§1) The compounds in Table I above were tested for insecticidal activity using the following testing procedures. LC50 values, based on the results of these tests and calculated according to dosage-mortality curves, are expressed in Table II.
The test compound was diluted in acetone and aliquots pipetted onto the bottom of aluminum dishes. To ensure even spreading of the chemical on the bottom of the dishes, 1 ml of acetone containing 0.01% peanut oil was also added to each dish. After all solvents had evaporated, the dishes were placed in circular cardboard cages containing 25 female houseflies, 1-2 days old. The cages were covered on the bottom with cellophane and on the top with tulle netting, and each contained a sugar-water saturated cotton plug for maintenance of the flies. Mortality was recorded after 48 hours. Test levels ranged from 100 μg/25 female houseflies downward. The LC-50 value is expressed below in Table II under the heading "HF", in terms of μg of the test compound per 25 female flies.

Another assay relates to Aphis fabae. The experiment in a line: Black bean aphid spray test on nasturtium plants, mortality after 48 hours. The settings on record: mixed ages, percent of test compound in sprayed solution. Format: in vivo, Black Bean Aphid Aphis fabae (Scop.). As to the method:
as §1
Black Bean Aphid Aphis fabae (Scop.)
Nasturtium plants (Tropaeolum sp.) approximately 5 cm tall, were transplanted into sandy loam soil in small cups and infested with 25-50 black bean aphids of mixed ages. Twenty-four hours later they were sprayed to the point of runoff with 50--50 acetone-water solutions of the test compound. Treated plants were held in the greenhouse and mortality was recorded after 48 hours. Test concentrations ranged from 0.05% downward. The LC-50 value is expressed below in Table II under the heading "BA" in terms of percent of the test compound in the sprayed solution.

A further assay relates to Tetranychus urticae. The experiment in a line: Two-spotted mite acaricidal test on pinto bean plants. Format: in vivo, two-spotted mite Tetranychus urticae (Koch). The settings on record: percent concentration in solution, 5-7 days; for LC50 2-SM A: adults; for LC50 2-SM E: eggs. The text has this:
Acaricidal Evaluation Test
The two-spotted mite (2SM) [Tetranychus urticae (Koch)]was employed in tests for miticides. The test procedure was as follows:
Pinto bean plants (Phaseolus sp.) approximately 10 cm tall, were transplanted into sandy loam soil in small cups and thoroughly infested with two-spotted mites of mixed ages and sexes. Twenty-four hours later the infested plants were inverted and dipped for 2-3 seconds in 50--50 acetone-water solutions of the test compound. Treated plants were held in the greenhouse, and 5-7 days later mortality was determined for both adult mites and the nymphs hatching from eggs which were on the plants at the time of treatment. Test concentrations ranged from 0.05% downward. The LC-50 value is expressed below in Table II under the headings "2SM-A" (i.e., adults) and "2SM-E" (i.e. eggs) in terms of percent concentration of the test compound in the solution.

The test system of another assay is Heliothis virescens. Nature of the assay: Tobacco budworm egg dip test. In kind it is in vivo, Tobacco Budworm Heliothis virescens (Fabricius). The following applies: 2-day old eggs (TBW-E), percent of test compound in solution. As to the method:
as §1
Tobacco Budworm Heliothis virescens (Fabricius)
Eggs: Paper towel patches of 2-day old eggs of the tobacco budworm were dipped in acetone solutions of the test compound and placed in petri dishes containing a portion of larval rearing medium. Treated eggs were maintained at 78° F. and mortality was recorded after all control eggs had hatched and the young larvae were feeding on the media. Test concentrations ranged from 0.1% downward. The LC-50 value is expressed below in Table II under the heading "TBW-E" in terms of percent of the test compound in the solution.

In another assay the test system is Trichoplusia ni. The experiment in a line: Cabbage looper larvae leaf-dip test. Format: in vivo, Cabbage Looper Trichoplusia ni (Hubner). The following applies: second instar larvae, percent of test compound in solution, 3-5 days. As to the method: as §1
Cabbage Looper Trichoplusia ni (Hubner)
The test compound was diluted in a 50--50 acetone-water solution Cotyledons of hyzini squash (Calabacita abobrinha), approximately 1×1.5 inches, were immersed in the test solutions for 2-3 seconds and placed on a wire screen to dry. The dried leaves were p1aced in petri dishes containing a moistened piece of filter paper and infested with 5 secondinstar cabbage looper larvae. The dishes were placed in a high humidity chamber. Mortality of the larvae was recorded 3-5 days later. Test concentrations ranged from 0.1% downward. The LC-50 value is expressed below in Table II under the heading "CL" in terms of percent of the test compound in solution.

For assay [1], the system named is Diabrotica undecimpunctata undecimpunctata. The experiment in a line: Western spotted cucumber beetle larvae soil test. Format: in vivo. The settings on record: Diabrotica eggs/larvae; ppm of the test compound in the soil. As to the method: as §1
Western Spotted Cucumber Beetle Larvae Diabrotica undecimpunctata undecimpunctata (Mannherheim)
Ten grams of moist potting soil was placed in a plastic cup. The test compound was dissolved in acetone. A 0.05 ml aliquot of the test sample, diluted to the desired concentration, was added to the soil. The cup was capped and the soil was mixed on a vortex mixer for approximately 15 seconds. An indentation was made on the surface of the soil and approximately 50 Diabrotica eggs were added. The eggs were covered with soil and maintained at room temperature (approximately 70° F. or 21° C.). Four days later a section of Romaine lettuce (Latuca sativa) leaf was placed in the treated cups. One week later the cups were examined for live larvae. Test concentrations ranged from 25 ppm downward. The LC-50 value is expressed below in Table II under the heading "Diabrotica" in terms of ppm of the test compound in the soil.

For `CC(C)C(=Nc1cncc(C(F)(F)F)c1)OCc1cccc(Oc2ccccc2)c1` [Compound 33], the “LC50 HF” value with Musca domestica came out at 5 µg. In addition, the “LC50 BA” value in the assay with Aphis fabae was more than 0.05%. Also, in the assay on Tetranychus urticae, the “LC50 2-SM A” value is more than 0.05% and the “LC50 2-SM E” value is more than 0.05%. In the assay with Heliothis virescens, the “LC50 TBW” value was found to be 0.075%. For the same compound, the “LC50 CL” value in the assay on Trichoplusia ni turned out to be 0.0035%. The “LC50 Diabrotica” value in assay [1] is on record as more than 25 ppm.
As for `CC(C)C(=Nc1cncc(C(F)(F)F)c1)OCc1ccc(F)c(Oc2ccc(Cl)cc2)c1` [Compound 37], the “LC50 HF” value in the assay on Musca domestica turned out to be 40 µg. Besides, the “LC50 BA” value in the assay on Aphis fabae was more than 0.05%. In the assay with Tetranychus urticae, the “LC50 2-SM A” value is more than 0.05% and the “LC50 2-SM E” value is more than 0.05%. For the same compound, in the assay with Heliothis virescens, the “LC50 TBW” value is on record as more than 0.1%. Further, the “LC50 CL” value in the assay with Trichoplusia ni is given as more than 0.1%. Also, the “LC50 Diabrotica” value in assay [1] is more than 25 ppm.
With `CSc1ccc(N=C(OCc2cccc(Oc3ccccc3)c2)C(C)C)cn1` [Compound 38], the “LC50 HF” value with Musca domestica was less than 100 µg. In the assay with Aphis fabae, the “LC50 BA” value stood at 0.005%. Also, in the assay with Tetranychus urticae, the “LC50 2-SM A” value is on record as more than 0.05% and the “LC50 2-SM E” value is more than 0.05%. Moreover, in the assay with Heliothis virescens, the “LC50 TBW” value is given as more than 0.1%. In addition, the “LC50 CL” value in the assay with Trichoplusia ni is more than 0.1%. In assay [1], the “LC50 Diabrotica” value is more than 25 ppm.
As to `CC(C)C(=Nc1ccc(OCC(F)(F)F)nc1)OCc1cccc(Oc2ccc(Cl)cc2)c1` [Compound 39], the “LC50 HF” value in the assay on Musca domestica is more than 100 µg. For the same compound, in the assay on Aphis fabae, the “LC50 BA” value is 0.001%. In the assay with Tetranychus urticae, the “LC50 2-SM A” value came out at 0.006% and the “LC50 2-SM E” value is listed as 0.006%. Also, in the assay on Heliothis virescens, the “LC50 TBW” value was determined as 0.02%. The “LC50 CL” value with Trichoplusia ni is more than 0.1%. The “LC50 Diabrotica” value in assay [1] was more than 25 ppm.
As to `CC(C)C(=Nc1ccc(OCC(F)(F)F)nc1)OCc1cccc(Oc2ccccc2)c1` [Compound 40], in the assay with Musca domestica, the “LC50 HF” value is less than 100 µg. The “LC50 BA” value with Aphis fabae amounted to 0.0003%. Further, in the assay with Tetranychus urticae, the “LC50 2-SM A” value was found to be 0.006% and the “LC50 2-SM E” value stood at 0.006%. Moreover, in the assay with Heliothis virescens, the “LC50 TBW” value turned out to be 0.045%. Further, the “LC50 CL” value in the assay with Trichoplusia ni is 0.00029%. In addition, the “LC50 Diabrotica” value in assay [1] was more than 25 ppm.
`CC(C)C(=Nc1ccc(OCC(F)(F)F)nc1)OCc1ccc(F)c(Oc2ccccc2)c1` [Compound 42]: in the assay with Musca domestica, the “LC50 HF” value is less than 100 µg. The “LC50 BA” value in the assay on Aphis fabae was found to be 0.0004%. For the same compound, in the assay with Tetranychus urticae, the “LC50 2-SM A” value is reported as 0.006% and the “LC50 2-SM E” value is given as 0.006%. Also, the “LC50 TBW” value in the assay with Heliothis virescens is listed as 0.017%. Besides, the “LC50 CL” value with Trichoplusia ni amounted to 0.000075%. For the same compound, the “LC50 Diabrotica” value in assay [1] is recorded as more than 25 ppm.
For the compound `CC(C)C(=Nc1ccc(OCC(F)(F)F)nc1)OCc1cccc(Oc2ccc(F)cc2)c1` [Compound 43], in the assay on Musca domestica, the “LC50 HF” value is more than 100 µg. Also, the “LC50 BA” value in the assay on Aphis fabae is given as 0.0003%. In addition, in the assay with Tetranychus urticae, the “LC50 2-SM A” value was found to be 0.006% and the “LC50 2-SM E” value was determined as 0.006%. The “LC50 TBW” value in the assay on Heliothis virescens came to 0.02%. Moreover, in the assay with Trichoplusia ni, the “LC50 CL” value is given as 0.00015%. Besides, the “LC50 Diabrotica” value in assay [1] is on record as more than 25 ppm.
On to `CC(C)C(=Nc1ccc(OCC(F)(F)F)nc1)OCc1ccc(F)c(Oc2ccc(Cl)cc2)c1` [Compound 44], for which, in the assay with Musca domestica, the “LC50 HF” value is more than 100 µg. Also, the “LC50 BA” value in the assay with Aphis fabae is reported as 0.0003%. Besides, in the assay with Tetranychus urticae, the “LC50 2-SM A” value was 0.001% and the “LC50 2-SM E” value amounted to 0.001%. Further, in the assay with Heliothis virescens, the “LC50 TBW” value turned out to be 0.01%. The “LC50 CL” value in the assay with Trichoplusia ni is 0.00017%. Also, in assay [1], the “LC50 Diabrotica” value is recorded as more than 25 ppm.
Take `CC(C)C(=Nc1ccc(OCC(F)(F)F)nc1)OCc1cccc(Oc2ccccc2)n1` [Compound 45]: the “LC50 HF” value in the assay on Musca domestica was less than 100 µg. Further, the “LC50 BA” value in the assay on Aphis fabae was 0.001%. Moreover, in the assay on Tetranychus urticae, the “LC50 2-SM A” value is listed as 0.03% and the “LC50 2-SM E” value came to 0.03%. Also, in the assay with Heliothis virescens, the “LC50 TBW” value is recorded as more than 0.1%. In addition, the “LC50 CL” value in the assay with Trichoplusia ni worked out at 0.00075%. Also, in assay [1], the “LC50 Diabrotica” value was more than 25 ppm.
For `CC(C)C(=Nc1ccc(OCC(F)(F)F)nc1)OCc1cccc(Oc2ccc(Cl)cc2)n1` [Compound 46], the “LC50 HF” value in the assay on Musca domestica was less than 100 µg. In the assay with Aphis fabae, the “LC50 BA” value is listed as 0.0003%. Also, in the assay on Tetranychus urticae, the “LC50 2-SM A” value turned out to be 0.006% and the “LC50 2-SM E” value amounted to 0.006%. Besides, the “LC50 TBW” value in the assay on Heliothis virescens was found to be 0.017%. Moreover, the “LC50 CL” value in the assay with Trichoplusia ni was found to be 0.00027%. For the same compound, the “LC50 Diabrotica” value in assay [1] was more than 25 ppm.
Consider `C=C(C)C(=Nc1ccc(Cl)nc1)OCc1cccc(Oc2ccccc2)c1` [Compound 47], for which the “LC50 HF” value in the assay on Musca domestica is less than 100 µg. For the same compound, the “LC50 BA” value with Aphis fabae is 0.05%. In the assay on Tetranychus urticae, the “LC50 2-SM A” value is more than 0.05% and the “LC50 2-SM E” value is on record as more than 0.05%. In the assay with Heliothis virescens, the “LC50 TBW” value is less than 0.1%. In addition, the “LC50 CL” value in the assay with Trichoplusia ni was less than 0.1%. Besides, in assay [1], the “LC50 Diabrotica” value is listed as more than 25 ppm.
For `C=C(C)C(=Nc1ccc(Cl)nc1)OCc1ccc(F)c(Oc2ccc(Cl)cc2)c1` [Compound 48], in the assay on Musca domestica, the “LC50 HF” value is less than 100 µg. The “LC50 BA” value in the assay with Aphis fabae is reported as less than 0.05%. Also, in the assay on Tetranychus urticae, the “LC50 2-SM A” value was more than 0.05% and the “LC50 2-SM E” value is more than 0.05%. Besides, in the assay with Heliothis virescens, the “LC50 TBW” value is given as less than 0.1%. Besides, in the assay with Trichoplusia ni, the “LC50 CL” value is listed as less than 0.1%. Moreover, the “LC50 Diabrotica” value in assay [1] was more than 25 ppm.
As for `C=C(C)C(=Nc1ccc(Cl)nc1)OCc1ccc(F)c(Oc2ccccc2)c1` [Compound 49], the “LC50 HF” value in the assay on Musca domestica is less than 100 µg. In the assay with Aphis fabae, the “LC50 BA” value is on record as less than 0.05%. In the assay with Tetranychus urticae, the “LC50 2-SM A” value is listed as more than 0.05% and the “LC50 2-SM E” value is more than 0.05%. Moreover, in the assay on Heliothis virescens, the “LC50 TBW” value amounted to 0.1%. In the assay on Trichoplusia ni, the “LC50 CL” value is recorded as less than 0.1%. Moreover, the “LC50 Diabrotica” value in assay [1] is recorded as more than 25 ppm.
